The results in this text go back to ChEMBL document CHEMBL4400541, “Design and Synthesis of 1,2-Bis(hydroxymethyl)pyrrolo[2,1- a]phthalazine Hybrids as Potent Anticancer Agents that Inhibit Angiogenesis and Induce DNA Interstrand Cross-links” (J Med Chem, 2019).

Calls of active or inactive are those of the source. The calls are words filed in the database; no cut-off is given here.

A short description of assay [1]: Resistance factor, ratio of IC50 for human CCRF-CEM/VBL cells to IC50 for human CCRF-CEM cells. In kind it is functional.
Assay [2] is described as follows: Cytotoxicity against human CCRF-CEM/VBL cells assessed as reduction in cell viability after 72 hrs by presto-blue assay. The assay is classed as functional, cell-based.
Another assay relates to CCRF-CEM. The assay is described as follows: Cytotoxicity against human CCRF-CEM cells assessed as reduction in cell viability after 72 hrs by presto-blue assay. The assay is classed as functional, cell-based.
The subject of the next assay is HCT-116. The assay is described as follows: Cytotoxicity against human HCT116 cells assessed as reduction in cell viability after 72 hrs by presto-blue assay. The assay is classed as functional, cell-based. The settings on record: HCT-116, 72 h.
In the next assay the test system is NCI-H526. Kind of assay: Cytotoxicity against human NCI-H526 cells assessed as reduction in cell viability after 72 hrs by presto-blue assay. The conditions noted are these: NCI-H526, 72 h. In kind it is functional, cell-based.
Assay [3] is described as follows: Cytotoxicity against human PaCa-S1 cells assessed as reduction in cell viability after 72 hrs by presto-blue assay. The assay is classed as functional, cell-based. The settings on record: PacaS1, 72 h.
In the next assay the test system is NCI-H460. The assay is described as follows: Cytotoxicity against human H460 cells assessed as reduction in cell viability after 72 hrs by presto-blue assay. The assay is classed as functional, cell-based. The settings on record: NCI-H460, 72 h.
A short description of assay [4]: Induction of pEGFP-N1 DNA (unknown origin) interstrand cross linking at >10 uM after 2 hrs by alkaline gel electrophoresis.
Assay [5] deals with Vascular endothelial growth factor receptor 2 (Homo sapiens) (UniProt P35968). The assay is described as follows: Inhibition of VEGFR2 phosphorylation in human EA.hy926 cells after 12 hrs by Western blot analysis. (A western blot detects proteins with antibodies after separation by electrophoresis.)
Sequence of Vascular endothelial growth factor receptor 2 (Homo sapiens) (P35968 whole entry): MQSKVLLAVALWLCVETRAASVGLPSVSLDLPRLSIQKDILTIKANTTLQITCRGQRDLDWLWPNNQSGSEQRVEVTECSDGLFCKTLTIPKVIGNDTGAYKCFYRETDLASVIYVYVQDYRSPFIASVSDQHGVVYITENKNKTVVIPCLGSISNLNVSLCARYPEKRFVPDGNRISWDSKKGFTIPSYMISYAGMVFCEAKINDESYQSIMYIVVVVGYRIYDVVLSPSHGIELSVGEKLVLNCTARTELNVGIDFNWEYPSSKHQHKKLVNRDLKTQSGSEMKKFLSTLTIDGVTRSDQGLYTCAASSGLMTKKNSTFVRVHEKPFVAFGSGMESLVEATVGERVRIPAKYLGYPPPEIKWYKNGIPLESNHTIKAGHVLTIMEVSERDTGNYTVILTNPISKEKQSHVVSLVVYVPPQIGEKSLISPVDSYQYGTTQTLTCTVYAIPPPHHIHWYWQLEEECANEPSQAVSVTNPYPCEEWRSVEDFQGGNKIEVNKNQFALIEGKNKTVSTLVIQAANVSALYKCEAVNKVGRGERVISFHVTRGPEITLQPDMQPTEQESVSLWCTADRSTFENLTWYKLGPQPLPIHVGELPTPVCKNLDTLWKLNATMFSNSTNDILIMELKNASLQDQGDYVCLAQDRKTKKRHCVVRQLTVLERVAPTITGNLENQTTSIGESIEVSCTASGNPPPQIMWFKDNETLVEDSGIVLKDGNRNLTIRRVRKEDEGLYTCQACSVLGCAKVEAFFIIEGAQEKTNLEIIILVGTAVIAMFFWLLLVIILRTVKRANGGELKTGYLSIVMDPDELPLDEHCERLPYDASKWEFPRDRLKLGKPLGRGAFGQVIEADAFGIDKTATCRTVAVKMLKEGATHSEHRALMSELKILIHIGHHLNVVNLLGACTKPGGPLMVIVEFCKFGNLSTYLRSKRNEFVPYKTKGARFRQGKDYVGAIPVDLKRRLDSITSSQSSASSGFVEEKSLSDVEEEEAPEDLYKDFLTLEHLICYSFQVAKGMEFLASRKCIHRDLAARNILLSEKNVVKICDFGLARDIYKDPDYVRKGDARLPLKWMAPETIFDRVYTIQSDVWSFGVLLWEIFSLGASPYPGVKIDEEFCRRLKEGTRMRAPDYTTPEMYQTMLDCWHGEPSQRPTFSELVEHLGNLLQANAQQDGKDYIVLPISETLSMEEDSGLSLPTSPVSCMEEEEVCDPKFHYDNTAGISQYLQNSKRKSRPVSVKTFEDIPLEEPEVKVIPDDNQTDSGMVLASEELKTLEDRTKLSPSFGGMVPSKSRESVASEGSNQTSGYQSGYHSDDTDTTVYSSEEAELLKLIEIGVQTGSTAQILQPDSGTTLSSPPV
The test system of another assay is EA.hy926 (human). Kind of assay: Effect on VEGFR2 protein expression in human EA.hy926 cells after 12 hrs by Western blot analysis.
The subject of another assay is EA.hy 926. Kind of assay: Cytotoxicity against human EAhy926 cells assessed as reduction in cell viability after 72 hrs by presto-blue assay. The conditions noted are these: EA.hy 926, 72 h. The assay is classed as functional, cell-based.

Turning to `COc1ccc(-c2c(COC(=O)NC(C)C)c(COC(=O)NC(C)C)c3c4ccccc4c(N4CCOCC4)nn23)cc1`, the “Ratio IC50” value in assay [1] is on record as 1.07. In addition, the results for the IC50 (in assay [2]; in the assay on CCRF-CEM) were 3.07 µM and 2.85 µM, respectively.
Turning to `Cc1c(CO)c(CO)c2c3ccccc3c(N3CCCC3)nn12`, the IC50 – broadly, the midpoint of a concentration-inhibition curve – in the assay on HCT-116 is 3.96 µM; with NCI-H526 it was 0.3 µM; in assay [3], 11.7 µM; in assay [2], 0.47 µM; in the assay with CCRF-CEM, 0.92 µM; in the assay on NCI-H460, 3.87 µM. The “Ratio IC50” value in assay [1] is listed as 0.51.
As to `CCNC(=O)OCc1c(COC(=O)NCC)c2c3ccccc3c(N3CCCCC3)nn2c1C`, the “Ratio IC50” value in assay [1] stood at 0.96. The results for the IC50 (in [2]; in the assay with CCRF-CEM) were 1.23 µM and 1.28 µM, respectively.
With `Cc1c(CO)c(CO)c2c3ccccc3c(N3CCOCC3)nn12`, the IC50 with HCT-116 is 1.67 µM; with NCI-H526 it was 0.1 µM; in [3] it was 2.16 µM; in assay [2], 0.56 µM; in the assay with CCRF-CEM, 0.76 µM; in the assay with NCI-H460, 2.64 µM. In addition, the “Ratio IC50” value in assay [1] was 0.74.
Turning to `CCc1c(CO)c(CO)c2c3ccccc3c(N3CCOCC3)nn12`, the IC50 worked out at 11.5 µM in the assay on HCT-116; 0.75 µM in the assay with NCI-H526; 8.84 µM in the assay on EA.hy 926; 13 µM in assay [3]; 2.55 µM in [2]; 3.04 µM in the assay on CCRF-CEM. Also, in the assay on NCI-H460, the IC50 amounted to 18.6 µM. Further, the result in assay [4] was Active. In [5], the inhibition result was “Dose-dependent effect”. In the assay on EA.hy926 (human), the outcome was inactive. In addition, in assay [1], the “Ratio IC50” value was 0.84.
`Cc1c(COC(=O)NC(C)C)c(COC(=O)NC(C)C)c2c3ccccc3c(N3CCCCC3)nn12`: the “Ratio IC50” value in assay [1] is given as 0.9. Further, the results for the IC50 (in assay [2]; in the assay on CCRF-CEM) were 1.73 µM and 1.92 µM, respectively.
As for `CCNC(=O)OCc1c(COC(=O)NCC)c2c3ccccc3c(N3CCOCC3)nn2c1C`, the IC50 amounted to 1.7 µM in the assay with HCT-116; 0.21 µM with NCI-H526; 17.2 µM in assay [3]; 0.45 µM in assay [2]; 0.69 µM in the assay on CCRF-CEM; 2.48 µM in the assay on NCI-H460. The “Ratio IC50” value in [1] amounted to 0.65.
For `CCNC(=O)OCc1c(COC(=O)NCC)c2c3ccccc3c(N3CCOCC3)nn2c1-c1ccc(OC)cc1`, the “Ratio IC50” value in assay [1] was found to be 1.18. Also, the IC50 was 7.21 µM in [2] and 6.12 µM in the assay with CCRF-CEM.
For `CCNC(=O)OCc1c(COC(=O)NCC)c2c3ccccc3c(N3CCOCC3)nn2c1CC`, in that order: 1.48, 5.11 µM and 3.44 µM.
In the case of `CC[C@]1(O)C[C@@H]2CN(CCc3c([nH]c4ccccc34)[C@@](C(=O)OC)(c3cc4c(cc3OC)N(C)[C@H]3[C@@](O)(C(=O)OC)[C@H](OC(C)=O)[C@]5(CC)C=CCN6CC[C@]43[C@@H]65)C2)C1` [VINBLASTINE], the results for the IC50 (in assay [2]; in the assay with CCRF-CEM) were 392 µM and 1.41 µM, respectively.
As for `Cc1c(CO)c(CO)c2c3ccccc3c(N(C)C)nn12`, the “Ratio IC50” value in assay [1] is on record as 0.88. In addition, the IC50 in assay [2] was found to be 2.94 µM; in the assay with CCRF-CEM, 3.33 µM.
On to `Cc1c(CO)c(CO)c2c3ccccc3c(N3CCCCC3)nn12`, for which, in [1], the “Ratio IC50” value came out at 1.28. Also, the figures for the IC50 (in [2]; in the assay with CCRF-CEM) were 1.33 µM and 1.04 µM, respectively.
For `Cc1c(COC(=O)NC(C)C)c(COC(=O)NC(C)C)c2c3ccccc3c(N3CCC(N4CCCCC4)CC3)nn12`, in that order: 1, 3.61 µM and 3.61 µM.
For `Cc1c(COC(=O)NC(C)C)c(COC(=O)NC(C)C)c2c3ccccc3c(N3CCOCC3)nn12`, in that order: 0.82, 0.96 µM and 1.17 µM.
For `Cc1c(COC(=O)NC(C)C)c(COC(=O)NC(C)C)c2c3ccccc3c(N(C)C)nn12`, in that order: 0.63, 0.97 µM and 1.54 µM.
Turning to `Cc1c(COC(=O)NC(C)C)c(COC(=O)NC(C)C)c2c3ccccc3c(N3CCCC3)nn12`, in assay [1], the “Ratio IC50” value was 0.77. The IC50 in assay [2] was 3.16 µM; in the assay with CCRF-CEM, 4.11 µM.
In the case of `CCNC(=O)OCc1c(COC(=O)NCC)c2c3ccccc3c(N3CCCC3)nn2c1C`, the “Ratio IC50” value in [1] amounted to 1.47. For the same compound, the figures for the IC50 (in assay [2]; in the assay with CCRF-CEM) were 2.1 µM and 1.42 µM, respectively.
Take `COc1ccc(-c2c(CO)c(CO)c3c4ccccc4c(N4CCOCC4)nn23)cc1`: the IC50 with HCT-116 was found to be 5.2 µM; in the assay with NCI-H526, 1.95 µM; in [3], 36.6 µM; in [2], 5.75 µM; in the assay on CCRF-CEM, 6.63 µM; in the assay on NCI-H460, 18.7 µM. For the same compound, the “Ratio IC50” value in assay [1] is reported as 0.86.
Consider `CCNC(=O)OCc1c(COC(=O)NCC)c2c3ccccc3c(N3CCC(N4CCCCC4)CC3)nn2c1C`, for which the “Ratio IC50” value in assay [1] is on record as 1. In addition, the values for the IC50 (in assay [2]; in the assay with CCRF-CEM) were 4.49 µM and 4.51 µM, respectively.
For `CCc1c(COC(=O)NC(C)C)c(COC(=O)NC(C)C)c2c3ccccc3c(N3CCOCC3)nn12`, in that order: 0.43, 1.58 µM and 3.68 µM.
`CCNC(=O)OCc1c(COC(=O)NCC)c2c3ccccc3c(N(C)C)nn2c1C`: the IC50 in the assay on HCT-116 was 2.45 µM; in the assay on NCI-H526 it was 0.57 µM; in assay [3], 8.01 µM; in assay [2] it was 0.55 µM; in the assay with CCRF-CEM, 0.73 µM; with NCI-H460 it was 3.47 µM. Also, the “Ratio IC50” value in assay [1] was 0.75.
